Data on twelve compounds can be found in US20260199481A1, “PROTEIN DEGRADATION TARGETING CHIMERA COMPOUND, COMPOSITION THEREOF, AND USE THEREOF” (TSINGHUA UNIVERSITY, priority 2022, published 2026).

Experiment [1] concerns MCF-7 cell line. Put plainly: In vivo anti-tumor activity, MCF-7 tumor model. More on the design: species or system BALB/c nude mice. To be noted: for tumor growth (tumor volume): 10 mg/kg subcutaneous injection. How it is done:
To investigate the in vivo activation and antitumor activity of the PROTAC compound AS2 and X-ray-responsive PROTAC compound A1, we performed in vivo antitumor activity studies. The MCF-7 cell line was selected, and experiments were performed in BALB/c nude mice. Experimental animals: BALB/c nude mice (female; 6-8 weeks old) were all purchased from Beijing Vital River Laboratory Animal Technology Co., Ltd and housed in pathogen-free conditions with standard temperature and humidity at the Laboratory Animal Resources Center of Tsinghua University. All animal experiments were approved by the Animal Ethics Committee of Tsinghua University. Tumor model establishment: MCF-7 cells in logarithmic growth phase were taken, and 0.25% trypsin was added to digest the cells after washing the cells for 3 times with pre-cooled PBS buffer. The digested cells were centrifuged at 1000 rpm/min for 5 min, the precipitate was discarded, and the cells were resuspended with pre-cooled PBS and carefully blown to make a single-cell solution. After the cells were counted by a counter, the cell density was adjusted to 1×10^7 cells/mL, and 10 mL was taken into a centrifuge tube and stored on ice. Before inoculation of cancer cells, nude mice were gently wiped under the skin of the right axilla with a paper towel sprayed with 75% alcohol. A 1 mL disposable syringe was used to aspirate 200 μL of cell suspension, and the air in the needle was removed, and a single subcutaneous injection was carried out by puncturing about 1 cm forward from the needle inlet site. The needle was withdrawn slowly to avoid fluid leakage. Observe the tumor growth status daily. Drug administration: When the tumor volume reached 120 mm^3, the tumor-bearing mice were randomly grouped. Six groups were set up, namely PBS, PROTAC drug AS2, PROTAC prodrug A1, PBS+X-ray irradiation, PROTAC drug AS2+X-ray irradiation, and PROTAC prodrug A1+X-ray irradiation. Each drug was dispersed in the following solution: 1.25% DMSO+20% PEG+5% Tween 80+73.75% dd H2O; administered dose: 10 mg/kg; subcutaneous injection. X-ray irradiation was performed 3 hours after drug injection. The irradiation dose was 5 Gy. Tumor size and body weight were monitored every other day. Tumor volume was calculated using the formula: tumor volume=length×width^2/2. After 16 days of monitoring, mice in each group were euthanized, and tumors and major organs were collected.

Experiment [2] addresses T1, BRD4 (Homo sapiens, UniProt O60885).
T1 construct: endogenous in cells; host or cells: MCF-7
As to the kind of experiment: Protein degradation activity, Western blotting of BRD4 in MCF-7 cells. To be noted: FIG. 3. It is filed as cell-based. As to the method: Cell treatment: MCF-7 cells in the logarithmic growth phase were taken for the experiment. Cells were inoculated in six-well plates at a density of 5.0×10^5 cells/per well and incubated at 37° C. for 24 hours. […]
Whole cell protein extraction: After completion of drug treatment, the culture medium was discarded, and the cells were washed 3 times with pre-cooled PBS. Cells were scraped off using a cell scraper, and the resulting solution was carefully aspirated and centrifuged at 300 g for 5 min at 4° C. to obtain cells, which were washed with PBS, resuspended, and centrifuged under the same conditions.
Cell lysis: Cells were washed with pre-cooled PBS and lysed in pre-cooled lysis buffer (containing 1% protease and phosphatase inhibitor) for 30 min, and cells were vigorously vortexed several times during lysis. After lysis was completed, the cells were centrifuged at 11,000 g for 15 min at 4° C., and the supernatant was collected as whole cell protein.
Protein denaturation: protein concentration was measured by Bradford assay. Proteins were diluted using 4× Protein Sampling Buffer. Subsequently, the proteins were denatured by heating in a metal bath at 100° C. for 15 min.
Protein Immunoblotting Assay (Western Blotting, WB) was Performed to Quantify BRD4 Protein:
1) Protein electrophoresis: proteins were separated in 4-12% or 4-20% Bis-Tris SDS-PAGE gels. The appropriate volume of the above cell whole protein extract was added to the lanes of the above SDS-PAGE gel. Turn on the power and electrophoresis at 120 V for 15 minutes, then adjust the voltage to 180 V and continue electrophoresis until the loading buffer reaches the lowest end of the gel.
(2) Membrane transfer: After electrophoresis, remove the gel, cut a PVDF membrane […] of the appropriate size and activate the membrane with anhydrous methanol, and install the membrane transfer device in the following order from the negative pole to the positive pole: sponge cushion, gel, PVDF membrane, sponge cushion. After installing the membrane transfer device, place it in the corresponding membrane transfer tank, check the liquid level of the solution required for membrane transfer, turn on the power, and complete the membrane transfer after 3 transfer cycles.
3) Blocking: Place the membrane in QuickBlock™ Western Blocking Buffer and shake it for 20 minutes at room temperature.
4) Primary antibody incubation: After the blocking, discard the blocking solution, add the primary antibody diluted to the appropriate concentration, and gently shake the membrane overnight at 4° C. After completing the incubation, wash the membrane 4 times with 1×TBST for 5 min/time.
(5) Secondary antibody incubation: Add secondary antibody diluted to the appropriate concentration and gently shake the PVDF membrane for 1 hour at room temperature. After incubation, the membrane was washed 4 times with 1×TBST for 5 min/time.
6) Developing: Prepare the ECL developing solution before developing. Lay the PVDF membrane flat on a clean plastic wrap, add the developer solution to the membrane, and let it stand for 1 minute away from light. Subsequently, the PVDF membrane was imaged on a gel system.

For experiment [3], the system named is MCF-7 cells. Put plainly: In vitro anti-tumor effect, CellTiter 96 viability assay. It is filed as cell-based. To be noted: Homo sapiens, MCF7, light or radiation study. How it is done:
Experimental Procedure: MCF-7 cells in the logarithmic growth phase were used for the experiment. The cells were seeded at 5000 cells per well in 96-well plates and incubated for 24 hours at 37° C. The cells were treated with Example compounds A1-D3 for 3 h. Subsequently, the irradiated group was irradiated with 10-30 Gy of X-rays, and the cells were continued to be incubated until 72 h after completion of irradiation. At the end of drug treatment, 20 μL of CellTiter 96° solution was added to each well. The well plates were incubated in an incubator for 2-4 hours, and then the absorbance was measured using a plate reader. Data were analyzed with GraphPad Prism software to obtain the IC50 values of each test compound.

[4] abbreviates: compound 3 h, then X-rays 10 Gy or 30 Gy, 72 h after irradiation, read-out: Irradiation with 10 Gy or 30 Gy IC50.
Setting [5] is: no irradiation, 72 h incubation, read-out: Radiation-free IC50.

Each structure is given as a SMILES string. Where two headings read alike, the source gives them in different places.

For the compound `Cc1ncsc1-c1ccc([C@H](C)NC(=O)[C@@H]2C[C@@H](O)CN2C(=O)[C@H](NC(=O)COCCOCCOCCNC(=O)C[C@@H]2N=C(c3ccc(Cl)cc3)c3c(sc(C)c3C)-n3c(C)nnc32)C(C)(C)C)cc1` [AS2], the “tumor growth (tumor volume)” value is “tumor growth was significantly inhibited” in experiment [1] (X-ray 5 Gy 3 hours after drug injection) and “poor antitumor effect” in experiment [1] (no irradiation, compared with PBS group). Moreover, the “tumor weight at day 16” value in experiment [1] (10 mg/kg subcutaneous, two administrations with radiation therapy, FIG. 9) was “essentially no tumor growth”. Besides, in experiment [2] (WB), half-maximal degradation (DC50) was put at 31.2 nM. Besides, the “degradation activity on BRD4” value in experiment [2] (tested concentrations 0-300 nM) is on record as “effectively degraded BRD4”.

Take `COc1cc(COC(=O)O[C@@H]2C[C@@H](C(=O)N[C@@H](C)c3ccc(-c4scnc4C)cc3)N(C(=O)[C@H](NC(=O)COCCOCCOCCNC(=O)C[C@@H]3N=C(c4ccc(Cl)cc4)c4c(sc(C)c4C)-n4c(C)nnc43)C(C)(C)C)C2)cc(OC)c1` [Compound A2]: the IC50 was 103 nM in experiment [3] (setting [4]) and 1110 nM in experiment [3] (setting [5]).

Regarding `Cc1sc2c(c1C)C(c1ccc(Cl)cc1)=N[C@@H](CC(=O)C(CCCCNc1cccc3c1C(=O)N(C1CCC(=O)NC1=O)C3=O)Cc1c(F)c(F)c(F)c(F)c1F)c1nnc(C)n1-2` (stereo partly drawn) [Compound A3], the IC50 came out at 273 nM in experiment [3] (setting [4]) and 2540 nM in experiment [3] (setting [5]).

Turning to `Cc1ncsc1-c1ccc([C@H](C)NC(=O)[C@@H]2C[C@@H](OC(=O)OCc3c(F)c(F)c(N=[N+]=[N-])c(F)c3F)CN2C(=O)[C@H](NC(=O)COCCCOCCNC(=O)C[C@@H]2N=C(c3ccc(Cl)cc3)c3c(sc(C)c3C)-n3c(C)nnc32)C(C)(C)C)cc1` [Compound B1], the IC50 in experiment [3] (setting [4]) came out at 119 nM; in experiment [3] (setting [5]), 1080 nM.

As for `COc1cc(COC(=O)O[C@@H]2C[C@@H](C(=O)N[C@@H](C)c3ccc(-c4scnc4C)cc3)N(C(=O)[C@H](NC(=O)COCCCOCCNC(=O)C[C@@H]3N=C(c4ccc(Cl)cc4)c4c(sc(C)c4C)-n4c(C)nnc43)C(C)(C)C)C2)cc(OC)c1` [Compound B2], the IC50 in experiment [3] (setting [4]) was determined as 119 nM; in experiment [3] (setting [5]) it was 1060 nM.

`COc1cc(CC(CCCCNc2cccc3c2C(=O)N(C2CCC(=O)NC2=O)C3=O)C(=O)C[C@@H]2N=C(c3ccc(Cl)cc3)c3c(sc(C)c3C)-n3c(C)nnc32)cc(OC)c1` (stereo partly drawn) [Compound B3]: the IC50 came to 338 nM in experiment [3] (setting [4]) and 2760 nM in experiment [3] (setting [5]).

Regarding `Cc1ncsc1-c1ccc([C@H](C)NC(=O)[C@@H]2C[C@@H](OC(=O)OCc3c(F)c(F)c(N=[N+]=[N-])c(F)c3F)CN2C(=O)[C@H](NC(=O)CCCCCCCCCCNC(=O)C[C@@H]2N=C(c3ccc(Cl)cc3)c3c(sc(C)c3C)-n3c(C)nnc32)C(C)(C)C)cc1` [Compound C1], the IC50 worked out at 146 nM in experiment [3] (setting [4]) and 964 nM in experiment [3] (setting [5]).

Regarding `COc1cc(COC(=O)O[C@@H]2C[C@@H](C(=O)N[C@@H](C)c3ccc(-c4scnc4C)cc3)N(C(=O)[C@H](NC(=O)CCCCCCCCCCNC(=O)C[C@@H]3N=C(c4ccc(Cl)cc4)c4c(sc(C)c4C)-n4c(C)nnc43)C(C)(C)C)C2)cc(OC)c1` [Compound C2], the IC50 in experiment [3] (setting [4]) was found to be 107 nM; in experiment [3] (setting [5]), 984 nM.

`Cc1sc2c(c1C)C(c1ccc(Cl)cc1)=N[C@@H](CC(=O)NCCCCNc1cccc3c1C(=O)N(C1CCC(=O)N(C(=O)OCc4c(F)c(F)c(N)c(F)c4F)C1=O)C3=O)c1nnc(C)n1-2` (stereo partly drawn) [Compound C3]: the values for the IC50 in experiment [3] (setting [4]) and in experiment [3] (setting [5]) were 970 nM and 1860 nM, respectively.

Regarding `Cc1ncsc1-c1ccc([C@H](C)NC(=O)[C@@H]2C[C@@H](OC(=O)OCc3c(F)c(F)c(N=[N+]=[N-])c(F)c3F)CN2C(=O)[C@H](NC(=O)CCOCc2cn(CCOCCNC(=O)C[C@@H]3N=C(c4ccc(Cl)cc4)c4c(sc(C)c4C)-n4c(C)nnc43)nn2)C(C)(C)C)cc1` [Compound D1], the IC50 in experiment [3] (setting [4]) turned out to be 152 nM; in experiment [3] (setting [5]), 1220 nM.

Regarding `COc1cc(COC(=O)O[C@@H]2C[C@@H](C(=O)N[C@@H](C)c3ccc(-c4scnc4C)cc3)N(C(=O)[C@H](NC(=O)CCOCc3cn(CCOCCNC(=O)C[C@@H]4N=C(c5ccc(Cl)cc5)c5c(sc(C)c5C)-n5c(C)nnc54)nn3)C(C)(C)C)C2)cc(OC)c1` [Compound D2], the results for the IC50 in experiment [3] (setting [4]) and in experiment [3] (setting [5]) were 127 nM and 1010 nM, respectively.

Take `COc1cc(COC(=O)N2C(=O)CCC(N3C(=O)c4cccc(NCCCCNC(=O)C[C@@H]5N=C(c6ccc(Cl)cc6)c6c(sc(C)c6C)-n6c(C)nnc65)c4C3=O)C2=O)cc(OC)c1` (stereo partly drawn) [Compound D3]: the IC50 in experiment [3] (setting [4]) came out at 104 nM; in experiment [3] (setting [5]), 1960 nM.
